Laboratory results taken from patent publication US20200163984A1, “USE OF ISOVALERYL SPIRAMYCIN I, II AND/OR III IN MANUFACTURING MEDICAMENT FOR TREATING AND/OR PREVENTING TUMOR, AND MEDICAMENT” (SHENYANG FUYANG PHARMACEUTICAL TECHNOLOGY CO., LTD., priority 2017, published 2020).
Values after ≈ are worked out from the molar mass of the structure shown.

Legend:
[1] = system: transplanted tumor of mouse Lewis lung cancer; test: Transplanted tumor of mouse Lewis lung cancer; settings: for Tumor Volume (mm3) (d 1) / Tumor Volume (mm3) (d30) / Relative Tumor Proliferation Rate (T/C) / Relative Tumor Volume (RTV): title prints KM mouse H22 cells; for Tumor Volume (mm3) (d30): d 30; for growth of Lewis lung cancer in mice: 13, 26 and 52 mg/kg i.g. 15 days
Experimental: Lewis lung cancer cells were cultured in a RPMI 1640 culture medium containing 10% fetal bovine serum at 37° C. in a 5% CO2 incubator. The cells in the logarithmic growth phase were subjected to trypsinization with 0.25% trypsin, then the cells were collected to be centrifugated to remove the obtained supernatant, then were washed twice with sterile normal saline. […] The Lewis cells were adjusted to 1×10^7/mL in concentration and stored in ice water. 75% ethanol was used to disinfect the skin under the right armpits of the mice, and each C57BL/6 mouse was soon inoculated subcutaneously with 0.2 ml of the cells at its right armpit.
(§1) In the Lewis lung cancer model, the mice inoculated with the tumor were randomly divided into groups with 10 mice in each group the next day of inoculation. The groups included: a model control group, a positive drug cyclophosphamide control group (CTX, 30 mg/kg), isovaleryl spiramycin I groups with doses of 13, 26 and 52 mg/kg; isovaleryl spiramycin II groups with doses of 13, 26 and 52 mg/kg; isovaleryl spiramycin III groups with doses of 13, 26 and 52 mg/kg. Each group was continuously administered intragastrically for 15 days with a dose of 20 ml/kg.
The tumor-bearing mice were weighed and sacrificed the next day after the last administration. The subcutaneous tumors were dissected and weighed. The average tumor weight of each group is calculated, and the tumor inhibition rate is calculated.
Tumor inhibition rate=(1−T/C)×100%
T: average tumor weight of the drug-administered group; C: average tumor weight of the blank control group.

[2] = system: NK cell activity of spleen cells against K562 cells; test: Natural killer (NK) cell activity of Lewis lung cancer tumor-bearing mice; assay type: in vivo, C57BL/6 mouse
Experimental: as §1
The serum-free RPMI 1640 medium was placed in a dish, and then the dish was placed on ice. The spleen was aseptically taken and gently ground with a sterile glass slide to prepare a single cell suspension. The single cell suspension was filtered with a double-layer sterile gauze, washed twice with serum-free RPMI1640 medium, and centrifuged at 1,500 rpm for 5 min to remove the obtained supernatant. 2 mL of red blood cell lysate was added to the treated suspension, the mixture was allowed to stand for 2 min, and then 8 mL of RPMI 1640 medium was added, centrifuging was performed at 1,500 rpm for 5 min to remove the obtained supernatant, and then washing was performed twice with the RPMI 1640 medium. […] A single cell suspension was prepared by using a RPMI 1640 medium containing 10% fetal bovine serum.
The spleen cell suspension was taken, and the cell density was adjusted to 1×10^7/mL (effector cells). A suspension of K562 cells was prepared with a cell density of 1×10^5/mL (target cells). Each mouse was set with: A. effector cells:target cell well (quantity ratio 20:1) to which […] of spleen cell suspension and 100 μL of K562 cell suspension were added; B. an effector cell control well to which 100 μL of spleen cell suspension and 100 μL of RPMI 1640 medium were added; and C. a target cell control well to which 100 μL of K562 cell suspension and 100 μL of RPMI 1640 medium were added. The above cells were added to a 96-well plate. After the 96-well plate was transferred to a saturated humidity condition with a volume fraction of 5% CO2 at 37° C. for incubation for 22 h, 10 μL of MTT solution (5 g/L) was added to each well, and incubation was continued to be performed for 4 hours under the same conditions, then the culture was terminated. 100 μl of a triple solution (SDS 10 g, 10M HCl 0.1 mL, isobutanol 5 mL, diluted with distilled water to 100 mL) was added, and the plate was shaken for 10 min to fully dissolve the crystals, and the Optical Density (OD) of each well at 490 nm was measured, and the NK cell activity was calculated. NK cell activity (%)=[TO−(S−E)]/TO×100%, wherein TO is the Optical Density of the target cell control well, S is the Optical Density of the effector cell control well, and E is the Optical Density of the effector cell.

[3] = system: human bladder cancer cell T-24; settings: T-24, MTT
Source text: (§2) The purpose of the assay is to evaluate the in vitro cell proliferation inhibition or cytotoxic activity of a tested sample.
(§3) Human breast cancer cells MCF-7 and MDA-MB-231, human hepatoma cells HepG2, human non-small cell lung cancer cells A549, human large cell lung cancer cells H460 and H1299, human renal clear cell adenocarcinoma cell 786-0, human renal cell adenocarcinoma cell 769-P, human glioma cell U251, human glioblastoma cell A172, human tissue lymphoma cell U937, human cervical cancer cell HeLa, human prostate cancer cell PC3, human pancreatic cancer cell PANC-1, human esophageal cancer cell TE-1, human gastric adenocarcinoma cell SGC7901, human colon cancer cell HT-29, human promyelocytic leukemia cell HL-60, human thyroid cancer cell TPC-1, and human bladder cancer cell T-24.
(§4) The inhibition rate of the medicament on tumor cell growth is calculated according to the following formula:
(§5) Tumor cell growth inhibition rate (%)=[A492 (negative control)−A492 (dosing group)]/A492 (negative control)×100%
(§6) And the half-inhibitory concentration (IC50) of the sample is determined therefrom.

[4] = system: human thyroid cancer cell TPC-1; settings: TPC-1, MTT
Source text: as §2, §3, §4, §5, §6

Row | Structure (SMILES) | NK Cell Activity ([2]; 26 mg/kg) | IC50 [3] | IC50 [4] | growth of Lewis lung cancer in mice [1] | Tumor Volume (mm3) (d 1) ([1]; dose 12.5 mg/kg, d 1) | Tumor Volume (mm3) (d30) ([1]; dose 12.5 mg/kg) | Relative Tumor Proliferation Rate (T/C) ([1]; dose 12.5 mg/kg) | Relative Tumor Volume (RTV) ([1]; dose 12.5 mg/kg) | Inhibition Rate (%) ([1]; dose 13 mg/kg) | Tumor Weight ([1]; dose 13 mg/kg) | Tumor Volume (mm3) (d 1) ([1]; dose 25 mg/kg, d 1) | Tumor Volume (mm3) (d30) ([1]; dose 25 mg/kg) | Relative Tumor Proliferation Rate (T/C) ([1]; dose 25 mg/kg) | Relative Tumor Volume (RTV) ([1]; dose 25 mg/kg) | Inhibition Rate (%) ([1]; dose 26 mg/kg) | Tumor Weight ([1]; dose 26 mg/kg) | Tumor Volume (mm3) (d 1) ([1]; dose 50 mg/kg, d 1) | Tumor Volume (mm3) (d30) ([1]; dose 50 mg/kg) | Relative Tumor Proliferation Rate (T/C) ([1]; dose 50 mg/kg) | Relative Tumor Volume (RTV) ([1]; dose 50 mg/kg) | further results
1 | O=P1(N(CCCl)CCCl)NCCCO1 (centres unmarked) [Cyclophosphamide, cyclophosphamide, reference compound] | 35.4 ± 6.6 % | – | – | – | – | – | – | – | – | – | – | – | – | – | – | – | – | – | – | – | Inhibition Rate (%) ([1]; dose 30 mg/kg): 76.43%; Tumor Weight ([1]; dose 30 mg/kg): 0.38 ± 0.07 g; Body Weight (g) (d1) ([1]; dose 30 mg/kg, d 1): 19.62 ± 1.01 g; Tumor Volume (mm3) (d 1) ([1]; dose 30 mg/kg, d 1): 104.35 ± 30.89 mm3; Body Weight (g) (d 15) ([1]; dose 30 mg/kg, d 15): 21.38 ± 0.67 g; Tumor Volume (mm3) (d30) ([1]; dose 30 mg/kg): 371.39 ± 112.68 mm3; Relative Tumor Proliferation Rate (T/C) ([1]; dose 30 mg/kg): 24.55; Relative Tumor Volume (RTV) ([1]; dose 30 mg/kg): 3.93 ± 1.86; tumor inhibition rate ([1]; mouse Lewis lung cancer, CTX 30 mg/kg i.g. 15 days): 76.43%; NK cell activity compared with the control group ([2]; cyclophosphamide, P<0.05): significantly lower
2 | CO[C@@H]1[C@@H](O[C@@H]2O[C@H](C)[C@@H](O[C@H]3C[C@@](C)(O)[C@@H](OC(=O)CC(C)C)[C@H](C)O3)[C@H](N(C)C)[C@H]2O)[C@@H](CC=O)C[C@@H](C)[C@@H](O[C@H]2CC[C@H](N(C)C)[C@@H](C)O2)/C=C/C=C/C[C@@H](C)OC(=O)C[C@H]1O [Isovaleryl spiramycin I, isovaleryl spiramycin I] | 67.0 ± 12.1 % | 18.68 ± 0.58 µg/mL (≈ 20.1 µM) | 19.97 ± 1.93 µg/mL (≈ 21.5 µM) | significantly inhibit | 104.68 ± 20.89 mm3 | 955.73 ± 330.24 mm3 | 57.56 | 9.22 ± 2.95 | 46.94% | 0.85 ± 0.24 g | 104.31 ± 19.76 mm3 | 756.20 ± 145.84 mm3 | 45.51 | 7.29 ± 0.82 | 62.97% | 0.59 ± 0.06 g | 103.79 ± 19.55 mm3 | 465.26 ± 52.94 mm3 | 29.05 | 4.65 ± 1.27 | Inhibition Rate (%) ([1]; dose 52 mg/kg): 71.83%; Tumor Weight ([1]; dose 52 mg/kg): 0.45 ± 0.14 g; Body Weight (g) (d1) ([1]; mouse, in vivo, 13 mg/kg): 19.93 ± 1.20 g; Body Weight (g) (d 15) ([1]; mouse, in vivo, 13 mg/kg): 22.70 ± 0.87 g; Body Weight (g) (d1) ([1]; mouse, in vivo, 26 mg/kg): 19.45 ± 0.68 g; Body Weight (g) (d 15) ([1]; mouse, in vivo, 26 mg/kg): 23.43 ± 1.41 g; Body Weight (g) (d1) ([1]; mouse, in vivo, 52 mg/kg): 19.87 ± 1.17 g; Body Weight (g) (d 15) ([1]; mouse, in vivo, 52 mg/kg): 23.25 ± 0.43 g; NK Cell Activity ([2]; 13 mg/kg): 52.5 ± 9.2%; NK Cell Activity ([2]; 52 mg/kg): 39.8 ± 6.8%; NK cell activity compared with the control group ([2]; 13, 26 and 52 mg/kg, P<0.01): significantly increase
3 | COC1C(OC(C)=O)CC(=O)OC(C)CC=CC=CC(OC2CCC(N(C)C)C(C)O2)C(C)CC(CC=O)C1OC1OC(C)C(OC2CC(C)(O)C(OC(=O)CC(C)C)C(C)O2)C(N(C)C)C1O (centres unmarked) [Isovaleryl spiramycin II, isovaleryl spiramycin II] | 47.0 ± 5.5% | 39.85 ± 3.26 µg/mL (≈ 41.1 µM) | 45.37 ± 2.90 µg/mL (≈ 46.8 µM) | significantly inhibit | 104.18 ± 19.49 mm3 | 1304.48 ± 379.51 mm3 | 80.51 | 12.89 ± 4.69 | 38.67% | 0.98 ± 0.37 g | 103.63 ± 19.46 mm3 | 1119.26 ± 338.67 mm3 | 68.97 | 11.04 ± 4.07 | 44.26% | 0.89 ± 0.18 g | 103.38 ± 18.03 mm3 | 798.42 ± 189.19 mm3 | 48.76 | 7.81 ± 1.76 | Inhibition Rate (%) ([1]; dose 52 mg/kg): 56.34%; Tumor Weight ([1]; dose 52 mg/kg): 0.70 ± 0.21 g; Body Weight (g) (d1) ([1]; mouse, in vivo, 13 mg/kg): 20.33 ± 0.64 g; Body Weight (g) (d 15) ([1]; mouse, in vivo, 13 mg/kg): 22.17 ± 1.74 g; Body Weight (g) (d1) ([1]; mouse, in vivo, 26 mg/kg): 19.62 ± 1.43 g; Body Weight (g) (d 15) ([1]; mouse, in vivo, 26 mg/kg): 22.38 ± 0.96 g; Body Weight (g) (d1) ([1]; mouse, in vivo, 52 mg/kg): 20.05 ± 0.67 g; Body Weight (g) (d 15) ([1]; mouse, in vivo, 52 mg/kg): 22.75 ± 0.95 g; NK Cell Activity ([2]; 13 mg/kg): 47.2 ± 9.2%; NK Cell Activity ([2]; 52 mg/kg): 43.1 ± 7.3%; NK cell activity compared with the control group ([2]; 13, 26 and 52 mg/kg, P<0.01): significantly increase
4 | CCC(=O)O[C@@H]1CC(=O)O[C@H](C)C/C=C/C=C/[C@H](O[C@H]2CC[C@H](N(C)C)[C@@H](C)O2)[C@H](C)C[C@H](CC=O)[C@H](O[C@@H]2O[C@H](C)[C@@H](O[C@H]3C[C@@](C)(O)[C@@H](OC(=O)CC(C)C)[C@H](C)O3)[C@H](N(C)C)[C@H]2O)[C@H]1OC [Isovaleryl spiramycin III, isovaleryl spiramycin III] | 46.0 ± 11.8% | 31.23 ± 1.47 µg/mL (≈ 31.8 µM) | 29.72 ± 4.02 µg/mL (≈ 30.2 µM) | significantly inhibit | 105.02 ± 31.31 mm3 | 1270.87 ± 198.05 mm3 | 84.57 | 13.54 ± 6.73 | 35.46% | 1.03 ± 0.18 g | 103.29 ± 29.09 mm3 | 841.92 ± 385.16 mm3 | 58.38 | 9.35 ± 5.89 | 48.96% | 0.82 ± 0.34 g | 104.43 ± 23.09 mm3 | 677.35 ± 237.77 mm3 | 41.81 | 6.69 ± 2.56 | Inhibition Rate (%) ([1]; dose 52 mg/kg): 57.54%; Tumor Weight ([1]; dose 52 mg/kg): 0.68 ± 0.18 g; Body Weight (g) (d1) ([1]; mouse, in vivo, 13 mg/kg): 19.62 ± 1.30 g; Body Weight (g) (d 15) ([1]; mouse, in vivo, 13 mg/kg): 22.52 ± 0.57 g; Body Weight (g) (d1) ([1]; mouse, in vivo, 26 mg/kg): 19.58 ± 0.63 g; Body Weight (g) (d 15) ([1]; mouse, in vivo, 26 mg/kg): 22.28 ± 0.66 g; Body Weight (g) (d1) ([1]; mouse, in vivo, 52 mg/kg): 20.00 ± 0.60 g; Body Weight (g) (d 15) ([1]; mouse, in vivo, 52 mg/kg): 22.42 ± 1.66 g; NK Cell Activity ([2]; 13 mg/kg): 48.9 ± 6.6%; NK Cell Activity ([2]; 52 mg/kg): 49.8 ± 6.2%; NK cell activity compared with the control group ([2]; 13, 26 and 52 mg/kg, P<0.01): significantly increase
